# Assays:
# Type in all cases: cell-based
# NFκB promoter activity [1] = assay: NFκB luciferase reporter assay in Panc-1 cells
# Method: FIGS. 3A, 3B, and 3C show the effect of cromolyn on S100P stimulated NFκB promoter activity in pancreatic cancer cells in vitro and in vivo. Panc-1 and BxPC-3 pancreatic cancer cell lines stably expressing an NFκB luciferase reporter were examined for the effects of S100P and cromolyn. […] Means and 95% confidence intervals are shown for three independent experiments performed in triplicate. *, P=0.022, †, P<0.001, and P<0.001 versus control; #, P=0.005 versus 100 nM S100P alone. […] Means and 95% confidence intervals are shown for three independent experiments performed in triplicate. *, P=0.003, †, P<0.001 versus control. […] After 1 week, tumor growth was assessed and NFκB activity was analyzed using an IVIS system (Xenogen Corp., Alameda, Calif.) after injecting mice with D-luciferin (150 mg per kg body weight) (0 time point). The mice were treated with cromolyn (5 mg per kg body weight by intraperitoneal injection), and NFκB luciferase activity was analyzed again at 24 and 48 hours. *, P=0.005 versus control. Means and 95% confidence intervals are shown for two independent experiments (n=4 mice per group). Two-tailed two-sample (unpaired for in vitro and paired for in vivo studies) Student's t-tests were used to determine P values.
# To study pancreatic cancer cell NFκB activity, a lentivirus NFκB luciferase reporter gene construct was developed. The NFκB luciferase reporter gene was excised and isolated from the pNF-κB-Luc Vector (Clonetec, Mountain View, Calif.) and cloned into the lentiviral vector FG9 (Gift from Dr. Xiao-Feng Qin, Dept. of Immunology, M.D. Anderson Cancer Center replacing the CMV/LTR and UBiC promoters, to form Lenti-NFκB-Luc. Lentiviral NFκB vector were co-transfected with packaging constructs pRSVREV, pMDLg/pRRE, and the VSV-G expression plasmid pHCMVG, and lentivirus was produced in 293T cells by the calcium transfection method, as previously described in Qin, et al., Inhibiting HIV-1 infection in human T cells by lentiviral-mediated delivery of small interfering RNA against CCR5; Proc. Natl. Acad. Sci. U.S.A. 2003 Jan. 7; 100(1):183-8. […] Functional validation of NFκB reporter activity was conducted in vitro using TNF-α (20 ng/mL, Sigma, St. Louis, Mo.) as a positive control.
# BxPC-3 and Panc-1 cells stably expressing a Lenti-NFkB-luc reporter construct were treated with S100P, cromolyn, or the combination for 5 hours. D-luciferin (150 μg/mL) was added to the cells, and luciferase activity was measured using an IVIS bioluminescence system (Xenogen Co. Alameda, Calif.). Each experiment was conducted three times in triplicate.
# NFκB promoter activity [2] = assay: NFκB luciferase reporter assay in BxPC-3 cells; conditions: 5 hours; for basal NFκB activity, mean: 0 μM mean 1.4×10^6
# BxPC-3 cells = assay: BxPC-3 cell viability, alone or with gemcitabine; conditions: 72 hours
# Method: BxPC-3 cells were plated at 1.0×10^3 cells/well and treated with 0 μM, 1 μM, 10 μM, and 100 μM of cromolyn or C5 alone or in combination with gemcitabine 1 μM and cell viability was analyzed after 72 hours. Two-tailed two-sample (unpaired) Student's t-tests were used to determine P values. […] BxPC-3 cells were plated at 1.0×10^3 cells/well and treated with either 100 μM of cromolyn or 1 μM C5 alone or in combination with gemcitabine (1 μM) and cell viability was analyzed after 72 hours.
# [3] = S100P 100 nM + cromolyn 100 μM, 5 hours
structure (smiles),measurement,setting,value
"O=C(O)c1cc(=O)c2c(OCC(O)COc3cccc4oc(C(=O)O)cc(=O)c34)cccc2o1 [cromolyn, disodium 1,3-bis[(2′-carboxylatochromon-5′-yl)oxy]-2-hydroxypropane]","NFκB promoter activity, difference versus 100 nM S100P alone",NFκB promoter activity [1]; [3],7100 photons/sec
same,"NFκB promoter activity, mean",NFκB promoter activity [1]; [3],7360 photons/sec
same,basal NFκB activity,NFκB promoter activity [1]; cromolyn alone,no effect
same,"basal NFκB activity, difference versus 0 μM",NFκB promoter activity [2]; cromolyn 10 μM,4.7×10^5 photons/sec
same,"basal NFκB activity, mean",NFκB promoter activity [2]; cromolyn 10 μM,9.4×10^5 photons/sec
same,"basal NFκB activity, difference versus 0 μM",NFκB promoter activity [2]; cromolyn 100 μM,5.9×10^5 photons/sec
same,"basal NFκB activity, mean",NFκB promoter activity [2]; cromolyn 100 μM,8.2×10^5 photons/sec
same,concentration giving the same level of cell reduction in combination with gemcitabine,"BxPC-3 cells; BxPC-3, gemcitabine 1 μM, FIG. 10",100 µM
same,BxPC-3 cell viability,BxPC-3 cells; alone and in conjunction with gemcitabine 1 μM,inhibit

# Reference: patent US20110195924A1, “Methods of Inhibiting the Interaction Between S100P and the Receptor for Advanced Glycation End-Products” (priority 2008, published 2011)
